According to article PMC6009956, “Design, synthesis and biological activity of N^4-phenylsubstituted-7H-pyrrolo[2,3-d]pyrimidin-4-amines as dual inhibitors of aurora kinase A and epidermal growth factor receptor kinase” (Journal of Enzyme Inhibition and Medicinal Chemistry, 2017):
Read-outs that look alike come from different tables or passages of the source.

Assays:
[1] = biological target: EGFR (Homo sapiens, UniProt P00533); experiment: ADP-Glo kinase assay, EGFR; format: biochemical; set-up: purchased BPS Bioscience (assay run externally by the vendor)
[2] = biological target: T1, aurora A kinase (AURKA) (Homo sapiens, UniProt O14965); experiment: ADP-Glo kinase assay, Aurora A; format: biochemical
T1 construct: purchased BPS Bioscience (assay run externally by the vendor)
T1 sequence (O14965 1-403): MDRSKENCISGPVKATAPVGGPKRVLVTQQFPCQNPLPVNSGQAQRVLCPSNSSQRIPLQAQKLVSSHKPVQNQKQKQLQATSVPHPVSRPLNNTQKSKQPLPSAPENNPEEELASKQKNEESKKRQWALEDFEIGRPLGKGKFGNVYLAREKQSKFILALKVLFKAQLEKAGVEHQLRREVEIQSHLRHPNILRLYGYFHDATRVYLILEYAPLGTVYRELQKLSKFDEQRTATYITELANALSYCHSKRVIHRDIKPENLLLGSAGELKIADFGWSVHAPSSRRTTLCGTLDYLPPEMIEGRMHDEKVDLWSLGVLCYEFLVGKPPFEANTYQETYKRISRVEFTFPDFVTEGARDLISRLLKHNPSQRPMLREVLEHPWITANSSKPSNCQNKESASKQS

Chain of EGFR (P00533 25-1210): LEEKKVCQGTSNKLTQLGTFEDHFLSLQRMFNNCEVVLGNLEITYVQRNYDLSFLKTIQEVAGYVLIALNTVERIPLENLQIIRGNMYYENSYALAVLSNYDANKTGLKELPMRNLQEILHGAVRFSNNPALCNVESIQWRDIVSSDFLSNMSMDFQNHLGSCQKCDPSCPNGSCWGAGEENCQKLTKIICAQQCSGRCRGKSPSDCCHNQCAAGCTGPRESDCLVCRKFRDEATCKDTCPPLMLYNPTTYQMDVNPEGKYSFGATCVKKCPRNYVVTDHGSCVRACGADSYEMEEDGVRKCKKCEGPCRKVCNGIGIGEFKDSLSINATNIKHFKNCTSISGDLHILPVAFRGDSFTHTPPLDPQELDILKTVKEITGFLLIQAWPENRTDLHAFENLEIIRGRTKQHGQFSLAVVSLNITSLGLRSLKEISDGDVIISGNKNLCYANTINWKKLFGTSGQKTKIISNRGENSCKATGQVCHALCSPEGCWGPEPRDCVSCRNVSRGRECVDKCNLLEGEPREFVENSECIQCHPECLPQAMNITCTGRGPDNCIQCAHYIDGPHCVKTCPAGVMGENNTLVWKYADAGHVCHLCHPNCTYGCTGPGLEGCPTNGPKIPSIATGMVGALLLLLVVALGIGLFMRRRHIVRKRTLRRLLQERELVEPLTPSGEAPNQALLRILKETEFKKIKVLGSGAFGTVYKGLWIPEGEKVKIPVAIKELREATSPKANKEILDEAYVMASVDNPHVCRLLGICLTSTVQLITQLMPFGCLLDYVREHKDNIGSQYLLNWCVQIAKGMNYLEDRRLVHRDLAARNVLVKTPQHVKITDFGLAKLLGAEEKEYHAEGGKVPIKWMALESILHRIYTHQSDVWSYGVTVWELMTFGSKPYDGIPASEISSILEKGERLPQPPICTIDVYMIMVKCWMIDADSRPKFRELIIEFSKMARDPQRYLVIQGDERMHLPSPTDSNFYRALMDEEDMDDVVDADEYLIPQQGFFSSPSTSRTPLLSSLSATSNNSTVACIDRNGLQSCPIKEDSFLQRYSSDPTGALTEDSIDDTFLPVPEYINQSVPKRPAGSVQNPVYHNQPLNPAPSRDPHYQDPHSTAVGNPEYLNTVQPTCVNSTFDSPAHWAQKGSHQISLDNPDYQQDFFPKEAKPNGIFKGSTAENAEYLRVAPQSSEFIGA

- Fold less potent than compound 7 against EGFR [1]: 100 fold
- IC50 ([1]; 10 µM ATP, triplicate, read-out: EGFR IC50 ± SD): 384 ± 65.5 nM
- IC50 ([1]; 10 µM ATP/0.2 mg/ml Poly-Glu-Tyr, read-out: EGFR IC50 (dose-response curve, supplement)): 357 nM
- EGFR % Activity Set1 ([1]; Log[nM] 0): 97%
- EGFR % Activity Set2 ([1]; Log[nM] 0): 99%
- EGFR % Activity Set3 ([1]; Log[nM] 0): 99%
- EGFR % Activity Set1 ([1]; Log[nM] 1.0): 95%
- EGFR % Activity Set2 ([1]; Log[nM] 1.0): 102%
- EGFR % Activity Set3 ([1]; Log[nM] 1.0): 91%
- EGFR % Activity Set1 ([1]; Log[nM] 1.5): 93%
- EGFR % Activity Set2 ([1]; Log[nM] 1.5): 102%
- EGFR % Activity Set3 ([1]; Log[nM] 1.5): 84%
- EGFR % Activity Set1 ([1]; Log[nM] 2.0): 80%
- EGFR % Activity Set2 ([1]; Log[nM] 2.0): 83%
- EGFR % Activity Set3 ([1]; Log[nM] 2.0): 82%
- EGFR % Activity Set1 ([1]; Log[nM] 2.5): 51%
- EGFR % Activity Set2 ([1]; Log[nM] 2.5): 49%
- EGFR % Activity Set3 ([1]; Log[nM] 2.5): 53%
- EGFR % Activity Set1 ([1]; Log[nM] 3.0): 26%
- EGFR % Activity Set2 ([1]; Log[nM] 3.0): 23%
- EGFR % Activity Set3 ([1]; Log[nM] 3.0): 27%
- EGFR % Activity Set1 ([1]; Log[nM] 3.5): 12%
- EGFR % Activity Set2 ([1]; Log[nM] 3.5): 9%
- EGFR % Activity Set3 ([1]; Log[nM] 3.5): 10%
- EGFR % Activity Set1 ([1]; Log[nM] 4.0): 4%
- EGFR % Activity Set2 ([1]; Log[nM] 4.0): 5%
- EGFR % Activity Set3 ([1]; Log[nM] 4.0): 4%
- EGFR % Activity Set1 ([1]; Log[nM] 4.5): 2%
- EGFR % Activity Set2 ([1]; Log[nM] 4.5): 3%
- EGFR % Activity Set3 ([1]; Log[nM] 4.5): 1%
- EGFR % Activity Set1 ([1]; Log[nM] 5.0): 1%
- EGFR % Activity Set2 ([1]; Log[nM] 5.0): 1%
- EGFR % Activity Set3 ([1]; Log[nM] 5.0): 2%
- Fold less potent than compound 2 against AURKA [2]: approximately two-fold
- IC50 ([2]; 10 µM ATP, triplicate, read-out: AURKA IC50 ± SD): 4540 ± 930 nM
- IC50 ([2]; 10 µM ATP/0.2 mg/ml Kemptide, read-out: Aurora A IC50 (dose-response curve, supplement)): 4500 nM
- Aurora A % Activity Set1 ([2]; Log[nM] 0): 103%
- Aurora A % Activity Set2 ([2]; Log[nM] 0): 107%
- Aurora A % Activity Set3 ([2]; Log[nM] 0): 99%
- Aurora A % Activity Set1 ([2]; Log[nM] 1.0): 110%
- Aurora A % Activity Set2 ([2]; Log[nM] 1.0): 101%
- Aurora A % Activity Set3 ([2]; Log[nM] 1.0): 111%
- Aurora A % Activity Set1 ([2]; Log[nM] 1.5): 109%
- Aurora A % Activity Set2 ([2]; Log[nM] 1.5): 108%
- Aurora A % Activity Set3 ([2]; Log[nM] 1.5): 105%
- Aurora A % Activity Set1 ([2]; Log[nM] 2.0): 109%
- Aurora A % Activity Set2 ([2]; Log[nM] 2.0): 109%
- Aurora A % Activity Set3 ([2]; Log[nM] 2.0): 109%
- Aurora A % Activity Set1 ([2]; Log[nM] 2.5): 96%
- Aurora A % Activity Set2 ([2]; Log[nM] 2.5): 101%
- Aurora A % Activity Set3 ([2]; Log[nM] 2.5): 113%
- Aurora A % Activity Set1 ([2]; Log[nM] 3.0): 84%
- Aurora A % Activity Set2 ([2]; Log[nM] 3.0): 80%
- Aurora A % Activity Set3 ([2]; Log[nM] 3.0): 92%
- Aurora A % Activity Set1 ([2]; Log[nM] 3.5): 55%
- Aurora A % Activity Set2 ([2]; Log[nM] 3.5): 57%
- Aurora A % Activity Set3 ([2]; Log[nM] 3.5): 59%
- Aurora A % Activity Set1 ([2]; Log[nM] 4.0): 30%
- Aurora A % Activity Set2 ([2]; Log[nM] 4.0): 28%
- Aurora A % Activity Set3 ([2]; Log[nM] 4.0): 29%
- Aurora A % Activity Set1 ([2]; Log[nM] 4.5): 11%
- Aurora A % Activity Set2 ([2]; Log[nM] 4.5): 11%
- Aurora A % Activity Set3 ([2]; Log[nM] 4.5): 11%
- Aurora A % Activity Set1 ([2]; Log[nM] 5.0): 8%
- Aurora A % Activity Set2 ([2]; Log[nM] 5.0): 7%
- Aurora A % Activity Set3 ([2]; Log[nM] 5.0): 8%
Structure (SMILES): Nc1nc(Nc2cccc(Br)c2)c2cc[nH]c2n1 [Compound 8, N^4-(3-bromophenyl)-7H-pyrrolo[2,3-d]pyrimidine-2,4-diamine]
